Assays:
[1] = target: T1, TBC1D15 TBC1 domain family member 15 (Homo sapiens, UniProt Q8TC07); assay: Cysteine liganding, probe competition; assay type: binding
T1 construct: Cells were resuspended in cold PBS on ice and sonicated with a probe sonicator to achieve lysis; endogenous in cells
T1 sequence (Q8TC07 1-691): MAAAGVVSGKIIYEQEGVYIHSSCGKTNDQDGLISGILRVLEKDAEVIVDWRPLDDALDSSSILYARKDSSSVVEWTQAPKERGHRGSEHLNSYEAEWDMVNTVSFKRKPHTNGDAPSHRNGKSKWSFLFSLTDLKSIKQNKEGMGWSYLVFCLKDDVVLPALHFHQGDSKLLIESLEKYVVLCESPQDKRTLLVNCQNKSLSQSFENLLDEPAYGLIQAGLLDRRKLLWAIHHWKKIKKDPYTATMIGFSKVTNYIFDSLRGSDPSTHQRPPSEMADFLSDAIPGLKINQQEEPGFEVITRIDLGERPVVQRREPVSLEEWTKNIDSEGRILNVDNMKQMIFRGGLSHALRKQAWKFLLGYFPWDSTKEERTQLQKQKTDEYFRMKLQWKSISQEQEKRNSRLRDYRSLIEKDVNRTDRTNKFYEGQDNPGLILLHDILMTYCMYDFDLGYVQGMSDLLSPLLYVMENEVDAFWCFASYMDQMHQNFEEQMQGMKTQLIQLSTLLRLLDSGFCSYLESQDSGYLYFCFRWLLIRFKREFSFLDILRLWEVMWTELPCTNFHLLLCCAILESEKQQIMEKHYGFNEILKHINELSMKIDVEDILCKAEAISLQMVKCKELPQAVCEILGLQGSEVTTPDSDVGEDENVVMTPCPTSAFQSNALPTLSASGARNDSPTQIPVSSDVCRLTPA
In short: (§1)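 Steps: sonicate cells in cold PBS; treat 5 mg/ml lysate with compound (25° C, 1 hr); add desthiobiotin iodoacetamide probe from a 10 mM stock (25° C, 1 hr); precipitate, reduce, alkylate, digest with trypsin; capture labelled peptides on streptavidin for analysis.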

[2] = target: T2, NOP56 Nucleolar protein 56 (Homo sapiens, UniProt O00567); assay: Cysteine liganding, probe competition; assay type: binding
T2 construct: Cells were resuspended in cold PBS on ice and sonicated with a probe sonicator to achieve lysis; endogenous in cells
T2 sequence (O00567 1-594): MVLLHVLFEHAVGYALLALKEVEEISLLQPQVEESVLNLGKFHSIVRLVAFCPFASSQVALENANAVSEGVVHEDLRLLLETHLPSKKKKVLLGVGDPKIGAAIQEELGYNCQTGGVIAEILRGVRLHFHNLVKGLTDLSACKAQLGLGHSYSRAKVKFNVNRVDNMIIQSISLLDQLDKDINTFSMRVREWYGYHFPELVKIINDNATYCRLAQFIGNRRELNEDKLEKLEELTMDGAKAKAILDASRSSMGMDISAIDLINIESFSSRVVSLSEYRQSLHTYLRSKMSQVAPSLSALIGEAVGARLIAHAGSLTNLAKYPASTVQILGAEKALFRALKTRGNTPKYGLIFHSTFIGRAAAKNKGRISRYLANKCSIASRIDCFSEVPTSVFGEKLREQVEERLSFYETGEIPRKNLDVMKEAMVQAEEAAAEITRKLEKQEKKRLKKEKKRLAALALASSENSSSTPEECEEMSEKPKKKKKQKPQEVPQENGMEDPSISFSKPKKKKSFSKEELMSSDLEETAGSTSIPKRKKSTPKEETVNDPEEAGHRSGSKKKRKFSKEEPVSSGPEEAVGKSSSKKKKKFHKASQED
In short: as §1

[3] = uniprot O00567, in % (unit assumed)

SMILES	Liganded ([1]; TBC1D15 Res# 24, uniprot Q8TC07)	Liganded ([2]; NOP56 Res# 211, uniprot O00567)	100 Max ([1]; uniprot Q8TC07)	100 ave ([1]; uniprot Q8TC07)	500 Max ([1]; uniprot Q8TC07)	500 ave ([1]; uniprot Q8TC07)	100 ave ([2]; uniprot O00567)	500 ave ([2]; uniprot O00567)	100 Max [2, 3]	500 Max [2, 3]
COc1ccc2c(c1)CCCN2C(=O)CCl [KB02]	YES	YES								
O=C(CCl)Nc1cc(C(F)(F)F)cc(C(F)(F)F)c1 [KBO3]			7.83	0.88	47.51	47.51	27.36	68.12	51.21	68.12

Source: patent publication US20200239530A1, “COMPOUNDS AND METHODS OF MODULATING PROTEIN DEGRADATION” (Vividion Therapeutics, Inc., priority 2017, published 2020)
